Entries after “also recorded” stand apart in the source; their conditions may differ.
How the values were obtained:
[1] = test system: SK-Mel-5 cells; assay: Flow cytometry of CR011 engineered antibodies; assay type: binding, human; details: 5 μg/sample/100 μl
Source text: (§1) (Jackson ImmunoResearch, West Grove, Pa.) Ten thousand events were collected and analyzed on a FACSCalibur instrument (Becton Dickinson, Mountain View, Calif.).
(§2) To verify binding of the bi-scFv to human CD3 molecules, we used purified human T cells. […] Control anti-CD3 mAb bound to T cells, and control anti-GPNMB mAb bound to SK-Mel-5 tumor cells.

[2] = test system: SK-Mel-5 tumor cells; assay: T lymphocyte redirected cytotoxicity (PKH2 / propidium iodine flow cytometry); assay type: cell-based, human; details: purified T cells cultured O/N with tumor cells
Procedure: Tumor cells were labeled with PKH2 green fluorescent linker kit (Sigma) and washed. Purified T cells were cultured O/N with PKH2-labeled tumor cells in the presence or absence of purified bi-scFv. Death of GPNMB positive tumor cells was measured by propidium iodine (PI) incorporation.

[3] = test system: human T cells (CD3); assay: Flow cytometry of CR011 engineered antibodies; assay type: binding; details: 5 μg/sample/100 μl
Source text: as §1, §2

[4] = target: T1, purified recombinant GPNMB (Homo sapiens, UniProt Q14956); assay: ELISA of CR011 engineered antibodies on recombinant GPNMB; assay type: binding; details: anti-FLAG-HRP detection
T1 construct: made in house; host or cells: HEK 293
T1 sequence (Q14956 23-492): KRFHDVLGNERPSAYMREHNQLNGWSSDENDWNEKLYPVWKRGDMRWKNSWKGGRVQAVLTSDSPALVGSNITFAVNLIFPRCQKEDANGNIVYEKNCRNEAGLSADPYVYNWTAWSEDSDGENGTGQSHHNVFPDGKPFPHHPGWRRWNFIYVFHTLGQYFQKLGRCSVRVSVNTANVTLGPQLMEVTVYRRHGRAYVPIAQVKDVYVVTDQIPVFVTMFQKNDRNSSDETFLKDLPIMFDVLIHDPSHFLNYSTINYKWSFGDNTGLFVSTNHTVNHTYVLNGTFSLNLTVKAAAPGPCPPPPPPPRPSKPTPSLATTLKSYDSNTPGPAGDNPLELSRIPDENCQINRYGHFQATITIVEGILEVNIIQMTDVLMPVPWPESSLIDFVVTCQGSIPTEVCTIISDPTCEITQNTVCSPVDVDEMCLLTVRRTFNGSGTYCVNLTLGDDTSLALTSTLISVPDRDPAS
Procedure: Plates were then blocked and washed. Various dilutions of the CR011 engineered antibodies were added into the wells. Plates were incubated for 1 h and washed. HRP-conjugated anti-FLAG M2 mAb (Sigma, St. Louis, Mo.) was added into the wells for 1 h, washed and the reaction developed with the TMB substrate reagent as described by the manufacturer (Pharmingen, San Jose, Calif.).
Plates were coated with human GPNMB protein tagged with His and V5. […] Binding of the recombinant mAbs (both monomer and dimer) was detected using anti-FLAG-HRP conjugated mAb M2 (Sigma).

CR011 scFv: CR011 single chain antibody VL-L4-VH Flag; SEQ ID NO: 355
binding to SK-Mel-5 cells [1]: present at a low level | killing of SK-Mel-5 tumor cells by T lymphocytes [2]: did not increase killing | binding to T cells [3]: did not bind CD3 positive T cells | binding to recombinant GPNMB protein [4]: bound to the GPNMB target; also recorded: bind to the recombinant GPNMB protein
